Biological target: T1, Cdc7 (BEV coexpressed huCDC7/DBF4) (Homo sapiens, UniProt O00311)
T1 construct: made in house; host or cells: baculovirus expression vector (BEV) system
Experiment: Cdc7 enzyme inhibition assay ([33P]-ATP, biotinylated peptide substrate, FlashPlate)
Assay type: biochemical
Protocol: Cdc7 (BEV coexpressed huCDC7/DBF4) is prepared internally. Cdc7 assays are conducted as follows with final concentrations as listed. In 384-well v-bottom polypropylene plates, 6 L compound (2% DMSO), is mixed with 6 µL of Cdc7 (2 μg/mL), and Jerini peptide substrate A-All (biotin-C6linker-TPSDSLIYDDGLS) (2 μM), followed by immediate initiation with 6 L […] (1 μM, 20 mCi/μmol) using a reaction buffer comprising 25 mM HEPES, pH 7.5, 1 mM DTT, 10 mM MgCl2, 100 μM Na3VO4, 0.075 mg/ml Triton X-100. Reactions are quenched after 1 hr by the addition of 90 L stop buffer (50 mM EDTA, 2M NaCl). 85 μL of the stopped reactions are transferred to 384-well streptavidin-coated plates (FlashPlate Plus, Perkin Elmer), incubated 30 minutes at room temperature and washed 3 times with 0.05% Tween-20/PBS using an ELX-405 automated plate washer (BioTek), and counted on a TopCount Scintillation Plate Reader (Packard). IC50 values are determined via non-linear regression fitting of enzyme inhibition data and corresponding Ki values are generated assuming ATP-competitive (equilibrium) inhibition and using the experimentally determined apparent ATP Km of 0.7 μM (as determined using the above assay condition, but varying ATP). Table 1 depicts enzyme inhibition data (Ki) for exemplary compounds. In Table 1, “A” represents a Ki of less than 10 nM, “B” represents a Ki of between 10 nM and 100 nM, and “C” represents a Ki of greater than 100 nM.
Table 2 depicts enzyme inhibition data (Ki) for examples 27-43 using the same assay as example 26. In Table 2, “A” represents a Ki of less than 10 nM, “B” represents a Ki of between 10 nM and 100 nM, and “C” represents a Ki of greater than 100 nM.

[1] = Table 2, same assay as example 26
[2] = Table 1, Ki from IC50 assuming ATP-competitive inhibition, apparent ATP Km 0.7 μM, 1 μM ATP

T1 sequence (O00311 whole entry): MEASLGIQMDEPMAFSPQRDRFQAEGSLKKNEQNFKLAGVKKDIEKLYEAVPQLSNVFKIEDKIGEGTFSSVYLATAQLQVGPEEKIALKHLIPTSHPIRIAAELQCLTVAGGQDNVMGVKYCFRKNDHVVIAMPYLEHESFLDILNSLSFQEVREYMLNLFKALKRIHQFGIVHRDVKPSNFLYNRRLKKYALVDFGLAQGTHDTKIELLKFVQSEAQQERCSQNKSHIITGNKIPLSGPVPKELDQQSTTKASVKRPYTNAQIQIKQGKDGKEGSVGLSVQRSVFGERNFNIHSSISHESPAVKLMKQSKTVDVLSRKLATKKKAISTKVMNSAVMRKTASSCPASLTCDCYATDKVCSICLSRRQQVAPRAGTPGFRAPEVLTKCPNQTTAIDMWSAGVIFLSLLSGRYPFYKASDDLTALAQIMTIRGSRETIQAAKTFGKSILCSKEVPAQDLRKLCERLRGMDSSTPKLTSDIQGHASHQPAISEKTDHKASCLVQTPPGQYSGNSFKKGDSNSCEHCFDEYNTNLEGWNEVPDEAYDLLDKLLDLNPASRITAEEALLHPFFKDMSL
T1 sequence (Q9UBU7 whole entry partner): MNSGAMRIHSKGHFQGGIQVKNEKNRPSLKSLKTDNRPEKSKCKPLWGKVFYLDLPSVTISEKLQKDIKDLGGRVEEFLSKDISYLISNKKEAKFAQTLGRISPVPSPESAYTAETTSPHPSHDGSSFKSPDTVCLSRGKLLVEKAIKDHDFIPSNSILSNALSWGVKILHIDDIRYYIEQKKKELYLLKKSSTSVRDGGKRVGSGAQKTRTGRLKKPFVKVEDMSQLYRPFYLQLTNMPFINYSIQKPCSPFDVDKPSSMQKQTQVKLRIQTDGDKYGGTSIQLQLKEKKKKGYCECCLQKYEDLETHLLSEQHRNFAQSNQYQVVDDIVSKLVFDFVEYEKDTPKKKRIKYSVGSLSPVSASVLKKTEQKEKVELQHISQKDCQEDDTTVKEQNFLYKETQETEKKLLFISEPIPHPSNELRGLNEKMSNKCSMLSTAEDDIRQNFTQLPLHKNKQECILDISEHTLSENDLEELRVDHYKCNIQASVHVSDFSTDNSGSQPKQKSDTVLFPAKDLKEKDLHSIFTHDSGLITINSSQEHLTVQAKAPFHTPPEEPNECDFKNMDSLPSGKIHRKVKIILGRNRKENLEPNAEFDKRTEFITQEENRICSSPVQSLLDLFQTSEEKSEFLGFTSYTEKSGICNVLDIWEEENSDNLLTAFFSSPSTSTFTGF

Structure (SMILES) | Ki [1] | Ki [2]
O=C(N[C@H]1CC[C@H](Nc2cc(-c3c[nH]c4nccnc34)cc(Cl)n2)CC1)[C@@H]1CCN1 [Example 30, (2S)—N-(trans-4-{[6-chloro-4-(5H-pyrrolo[2,3-b]pyrazin-7-yl)pyridin-2-yl]amino}cyclohexyl)azetidine-2-carboxamide] | < 10 nM | 
CN1CCCC(Nc2cc(-c3c[nH]c4nccnc34)cc(Cl)n2)C1 (stereo not shown) [Example 27, 6-chloro-N-(1-methylpiperidin-3-yl)-4-(5H-pyrrolo[2,3-b]pyrazin-7-yl)pyridin-2-amine] | < 10 nM | 
O=S(=O)(NC1CCCC(Nc2cc(-c3c[nH]c4nccnc34)cc(Cl)n2)C1)c1ccco1 (stereo not shown) [Example 25, N-(3-(6-chloro-4-(5H-pyrrolo[2,3-b]pyrazin-7-yl)pyridin-2-ylamino)cyclohexyl)furan-2-sulfonamide] |  | < 10 nM
CS(=O)(=O)NC1CCCC(Nc2cc(-c3c[nH]c4nccnc34)cc(Cl)n2)C1 (stereo not shown) [Example 13, N-(3-(6-chloro-4-(5H-pyrrolo[2,3-b]pyrazin-7-yl)pyridin-2-ylamino)cyclohexyl)methanesulfonamide] |  | < 10 nM
CCN1CCCC(Nc2cc(-c3c[nH]c4nccnc34)cc(Cl)n2)C1 (stereo not shown) [Example 4, 6-chloro-N-(1-ethylpiperidin-3-yl)-4-(5H-pyrrolo[2,3-b]pyrazin-7-yl)pyridin-2-amine] |  | < 10 nM
O[C@H]1CC[C@H](Nc2cc(-c3c[nH]c4nccnc34)cc(Cl)n2)CC1 [Example 2, Trans 4-(6-chloro-4-(5H-pyrrolo[3,2-b]pyrazin-7-yl)pyridin-2-ylamino)cyclohexanol] |  | < 10 nM
O[C@H]1CC[C@H](Nc2cc(-c3c[nH]c4ncc(Cl)nc34)cc(Cl)n2)CC1 [Example 33, trans 4-{[6-chloro-4-(2-chloro-5H-pyrrolo[2,3-b]pyrazin-7-yl)pyridin-2-yl]amino}cyclohexanol] | < 10 nM | 
CN(C)C1CCCC(Nc2cc(-c3c[nH]c4nccnc34)cc(Cl)n2)C1 (stereo not shown) [Example 12, N^1-(6-chloro-4-(5H-pyrrolo[2,3-b]pyrazin-7-yl)pyridin-2-yl)-N^3,N^3-dimethylcyclohexane-1,3-diamine] |  | < 10 nM
CCn1cc(-c2cc(Cl)nc(NC3CCCC(NC(=O)CN(C)C)C3)c2)c2nccnc21 (stereo not shown) [Example 24] |  | > 100 nM
O=C(Nc1cc(-c2c[nH]c3nccnc23)cc(Cl)n1)c1ccccc1 [Example 17, N-(6-chloro-4-(5H-pyrrolo[2,3-b]pyrazin-7-yl)pyridin-2-yl)benzamide] |  | 10 to 100 nM
COc1cc(N2CCC(N3CCN(C)CC3)CC2)ccc1Nc1cnc2[nH]cc(-c3cc(Cl)nc(NC4CCCCC4)c3)c2n1 [Example 42, 7-[2-chloro-6-(cyclohexylamino)pyridin-4-yl]-N-{2-methoxy-4-[4-(4-methylpiperazin-1-yl)piperidin-1-yl]phenyl}-5H-pyrrolo[2,3-b]pyrazin-2-amine] | < 10 nM | 
Clc1cc(-c2c[nH]c3ncc(-c4ccccc4)nc23)cc(NC2CCCCC2)n1 [Example 38, 6-chloro-N-cyclohexyl-4-(2-phenyl-5H-pyrrolo[2,3-b]pyrazin-7-yl)pyridin-2-amine] | 10 to 100 nM | 
O=C(C1CC1)N1CCCC(Nc2cc(-c3c[nH]c4nccnc34)cc(Cl)n2)C1 (stereo not shown) [Example 5, (3-(6-chloro-4-(5H-pyrrolo[2,3-b]pyrazin-7-yl)pyridin-2-ylamino)piperidin-1-yl)(cyclopropyl)methanone] |  | < 10 nM
CC(C)(CN)CNc1cc(-c2c[nH]c3nccnc23)cc(Cl)n1 [Example 19, N^1-(6-chloro-4-(5H-pyrrolo[2,3-b]pyrazin-7-yl)pyridin-2-yl)-2,2-dimethylpropane-1,3-diamine] |  | < 10 nM
O=C(NC1CCCC(Nc2cc(-c3c[nH]c4nccnc34)cc(Cl)n2)C1)C1CC1 (stereo not shown) [Example 11, N-(3-(6-chloro-4-(5H-pyrrolo[2,3-b]pyrazin-7-yl)pyridin-2-ylamino)cyclohexyl)cyclopropanecarboxamide] |  | < 10 nM
C[C@@H](C(=O)N[C@H]1CC[C@H](Nc2cc(-c3c[nH]c4nccnc34)cc(Cl)n2)CC1)N(C)C (relative stereo) [Example 32, N-(trans-4-{[6-chloro-4-(5H-pyrrolo[2,3-b]pyrazin-7-yl)pyridin-2-yl]amino}cyclohexyl)-N^2,N^2-dimethylalaninamide] | < 10 nM | 
CN1CCCC(CNc2cc(-c3c[nH]c4nccnc34)cc(Cl)n2)C1 (stereo not shown) [Example 28, 6-chloro-N-[(1-methylpiperidin-3-yl)methyl]-4-(5H-pyrrolo[2,3-b]pyrazin-7-yl)pyridin-2-amine] | < 10 nM | 

Structure (SMILES) | Ki [1] | Ki [2]
O=C(N[C@H]1CC[C@H](Nc2cc(-c3c[nH]c4nccnc34)cc(Cl)n2)CC1)C1CC1 [Example 8, N-(trans-4-(6-chloro-4-(5H-pyrrolo[2,3-b]pyrazin-7-yl)pyridin-2-ylamino)cyclohexyl)cyclopropanecarboxamide] |  | < 10 nM
Clc1cc(-c2c[nH]c3ncc(-c4cnccn4)nc23)cc(NC2CCCCC2)n1 [Example 41, 6-chloro-N-cyclohexyl-4-[2-(pyrazin-2-yl)-5H-pyrrolo[2,3-b]pyrazin-7-yl]pyridin-2-amine] | < 10 nM | 
CCN1CCC(C(=O)N[C@H]2CC[C@H](Nc3cc(-c4c[nH]c5nccnc45)cc(Cl)n3)CC2)C1 (relative stereo) [Example 29, N-(trans-4-{[6-chloro-4-(5H-pyrrolo[2,3-b]pyrazin-7-yl)pyridin-2-yl]amino}cyclohexyl)-1-ethylpyrrolidine-3-carboxamide] | < 10 nM | 
Clc1cc(-c2c[nH]c3ncc(Cl)nc23)cc(NC2CCCCC2)n1 [Example 35, 6-chloro-4-(2-chloro-5H-pyrrolo[2,3-b]pyrazin-7-yl)-N-cyclohexylpyridin-2-amine] | < 10 nM | 
Clc1cc(-c2c[nH]c3ncc(/C=C/c4ccncc4)nc23)cc(NC2CCCCC2)n1 [Example 43, 6-chloro-N-cyclohexyl-4-{2-[(E)-2-(pyridin-4-yl)ethenyl]-5H-pyrrolo[2,3-b]pyrazin-7-yl}pyridin-2-amine] | < 10 nM | 
N[C@H]1CC[C@H](Nc2cc(-c3c[nH]c4nccnc34)cc(Cl)n2)CC1 [Example 7, Trans N^1-(6-chloro-4-(5H-pyrrolo[2,3-b]pyrazin-7-yl)pyridin-2-yl)cyclohexane-1,4-diamine] |  | < 10 nM
Clc1cc(-c2c[nH]c3ncc(Nc4ccccc4)nc23)cc(NC2CCCCC2)n1 [Example 39, 7-[2-chloro-6-(cyclohexylamino)pyridin-4-yl]-N-phenyl-5H-pyrrolo[2,3-b]pyrazin-2-amine] | 10 to 100 nM | 
O=C1CC(C(=O)N[C@H]2CC[C@H](Nc3cc(-c4c[nH]c5nccnc45)cc(Cl)n3)CC2)CC(=O)N1 [Example 31, N-(trans-4-{[6-chloro-4-(5H-pyrrolo[2,3-b]pyrazin-7-yl)pyridin-2-yl]amino}cyclohexyl)-2,6-dioxopiperidine-4-carboxamide] | < 10 nM | 
CN(C)[C@H]1CC[C@H](Nc2cc(-c3c[nH]c4nccnc34)cc(Cl)n2)CC1 [Example 9, trans-N^1-(6-chloro-4-(5H-pyrrolo[2,3-b]pyrazin-7-yl)pyridin-2-yl)-N^4,N^4-dimethylcyclohexane-1,4-diamine] |  | < 10 nM
Nc1cc(-c2c[nH]c3nccnc23)cc(Cl)n1 [Example 18, 6-chloro-4-(5H-pyrrolo[2,3-b]pyrazin-7-yl)pyridin-2-amine] |  | < 10 nM
Clc1cc(-c2c[nH]c3nccnc23)cc(NC2CCCCC2)n1 [Example 1, 6-chloro-N-cyclohexyl-4-(5H-pyrrolo[3,2-b]pyrazin-7-yl)pyridin-2-amine] |  | < 10 nM
Clc1cc(-c2c[nH]c3nccnc23)cc(NC2CCCNC2)n1 (stereo not shown) [Example 3, 6-chloro-N-(piperidin-3-yl)-4-(5H-pyrrolo[2,3-b]pyrazin-7-yl)pyridin-2-amine] |  | < 10 nM
O=C(O)c1cnc2[nH]cc(-c3cc(Cl)nc(NC4CCCCC4)c3)c2n1 [Example 36, 7-[2-chloro-6-(cyclohexylamino)pyridin-4-yl]-5H-pyrrolo[2,3-b]pyrazine-2-carboxylic acid] | < 10 nM | 
O=C1CCC(C(=O)N[C@H]2CC[C@H](Nc3cc(-c4c[nH]c5nccnc45)cc(Cl)n3)CC2)N1 (relative stereo) [Example 20, N-(trans 4-(6-chloro-4-(5H-pyrrolo[3,2-b]pyrazin-7-yl)pyridin-2-ylamino)cyclohexyl)-5-oxopyrrolidine-2-carboxamide] |  | < 10 nM
Clc1cc(-c2c[nH]c3nccnc23)nc(NC2CCCCC2)n1 [Example 21, 4-chloro-N-cyclohexyl-6-(5H-pyrrolo[3,2-b]pyrazin-7-yl)pyrimidin-2-amine] |  | > 100 nM
CCn1cc(-c2cc(Cl)nc(N[C@H]3CC[C@H](NC(=O)C4CC4)CC3)c2)c2nccnc21 [Example 22] |  | > 100 nM
CN(C)CC(=O)NC1CCCC(Nc2cc(-c3c[nH]c4nccnc34)cc(Cl)n2)C1 (stereo not shown) [Example 23, N-(3-(6-chloro-4-(5H-pyrrolo[2,3-b]pyrazin-7-yl)pyridin-2-ylamino)cyclohexyl)-2-(dimethylamino)acetamide] |  | < 10 nM

From patent US8383624B2 (Abbott Laboratories, priority 2009, dated 2013)
